Reference: patent US20120039796A1, “Novel method for creating, suspending and stabilizing electronically modified oxygen derivatives, along with creating, suspending and stabilizing electronically modified reaction intermediates, in a bio compatible fluorocarbon suspension, for the purpose of inducing a cascading immune response in …” (priority 2010, published 2012)

Assays:
cancer cell cultures = conditions: cited from earlier work
TrxR = biological target: T1, TrxR (Homo sapiens, UniProt Q16881); conditions: cited from earlier work
T1 sequence (Q16881 151-649 limits assumed): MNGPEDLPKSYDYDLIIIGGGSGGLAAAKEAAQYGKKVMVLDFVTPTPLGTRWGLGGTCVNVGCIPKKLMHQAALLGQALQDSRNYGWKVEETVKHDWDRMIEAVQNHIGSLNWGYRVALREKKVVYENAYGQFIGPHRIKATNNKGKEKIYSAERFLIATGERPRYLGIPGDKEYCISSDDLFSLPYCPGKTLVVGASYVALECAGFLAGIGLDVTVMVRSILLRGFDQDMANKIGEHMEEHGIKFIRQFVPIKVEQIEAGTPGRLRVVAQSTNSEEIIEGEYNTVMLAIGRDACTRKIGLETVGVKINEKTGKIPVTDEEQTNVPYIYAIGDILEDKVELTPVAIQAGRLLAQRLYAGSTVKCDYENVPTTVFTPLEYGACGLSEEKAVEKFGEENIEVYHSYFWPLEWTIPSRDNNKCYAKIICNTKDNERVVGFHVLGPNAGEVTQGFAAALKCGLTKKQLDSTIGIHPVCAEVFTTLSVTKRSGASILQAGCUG

[1] = cited from earlier work
[2] = Stability of ozone in Fluorodecalin stored frozen at -50 C for 30 days, absorbance at 260 nm; type: physicochemical
Description: (§1) After the ten hours expired, the spectrometer was quickly restarted for another 10 hours, were after the first 4 hours and 20 min in the second run is where the sample reached its half life. Once the 20 hours expired, the ABS reading was 0.082 were it took another 10 hours for Ozone too fully decay.
After 30 days, the sample that was placed in the freezer was removed out of the freezer, with in 5 min the sample was completely thawed, which then a 0.01 ml sample was quickly placed it into the spectrometer were 3 consecutive single non timed scans were taken, with an average highest ABS reading of 0.688.

[3] = cited from earlier work; remark: listed apart in the source
[4] = Stability of ozone in 95% pure Fluorodecalin (C10F18), non-frozen, continuous absorbance at 260 nm; type: physicochemical
Description: as §1
In the first PFC experiment, the ozone was stable within the PFC matrix for over 5 hours without any appreciable decay, after 5 hours the sample started to deviate and when the 10 hours mark was reached, the reading was around 0.600 ABS, in the last 5 hours of the run is when the sample lost 0.09 ABS, this was excellent result. In the second part of the experiment is where the sample decay accelerated. […] It should be noted the sample of PFC was 95% pure, and was the only purity I could attain at the time for the experiment and due to time constraints another sample could not have been attained. It should also be noted when the sample was finally removed from the machine for clean up, about 60 hours later after the initial experiment, half the sample evaporated. […] The utility of this patent is self evident; this invention solves the problems that plagued modern ozone therapy for the last 100 years.

[5] = Decay of ozone bubbled into distilled water, absorbance at 260 nm; type: physicochemical
Description: 15 ml of distilled h20 was used to bubble a mixture of ozone/oxygen through the sample for 30 min in a glass bubbler using a custom made proton exchange membrane ozone machine, which then 0.01 ml sample was quickly placed in a hatch DR 4000 u spectrometer, the machine was zeroed before the sample was placed in, also the absorbance wave length was set for 260 nm, the detection absorbance band of ozone, initial results at the peak were 0.590 ABS, but quickly decayed and after 20 min the ozone present in the sample was completely gone. This is the main problem with modem ozone therapy, the sample disappears with a predictable results extremely fast decay rate with in 20 min, and there is not enough of a concentration left to make a therapeutic difference, especially for burns, ulcerations, tendon injections.

Compound: O=CC[C@@H](O)[C@H](O)[C@H](O)CO [Example 2-DG, 2-Deoxy-D-glucose]
- apoptosis (cancer cell cultures; by glucose deprivation): induces apoptosis
- effect on cell growth (cancer cell cultures): hampers cell growth

Compound: O=c1c(O)c(-c2cc(O)c(O)c(O)c2)oc2cc(O)cc(O)c12 [myricetin]
- inhibitory effect on TrxR (TrxR): NADPH-, concentration-, and time-dependent inhibitory effect

Compound: O=O [oxygen]
- solubility in PFC liquids ([1]; PFC liquids for biomedical applications, 37° C., 1 atm): 40-50 vol. %
- solubility in water ([1]; water, 37° C., 1 atm): 2.5 vol. %

Compound: O=[O+][O-] [ozone]
- stability in the frozen state ([2]; 30 days at -50 C): fully stabilized
- average highest ABS reading after storage ([2]; 30 days in freezer at -50 C, thawed, 3 scans): 0.688 ABS
- time stable in air at -50 degrees C ([3]; air, -50 degrees C): about 3 months
- half-life in air ([3]; air): 12 h
- half-life in saline ([3]; saline): less than 20 min
- half-life in water ([3]; watery solution): about 20 minutes
- initial absorbance at the highest peak ([4]; 20/80 ozone/oxygen bubbled 20 min in Fluorodecalin, 260 nm): around 0.690 ABS
- absorbance at the 10 hours mark ([4]; Fluorodecalin, non-frozen): around 0.600 ABS
- absorbance once 20 hours expired ([4]; Fluorodecalin, non-frozen): 0.082 ABS
- further time for ozone to fully decay after the 20 hours ([4]; Fluorodecalin, non-frozen): 10 h
- deviation in ABS over the first 10 hours ([4]; Fluorodecalin, non-frozen, first 10 hour run): 0.09 ABS
- amount dissolved in perfluorodecalin relative to oxygen ([1]; at stp): 13 times
- time after which ozone in the sample was completely gone ([5]; distilled h20): 20 min
- initial absorbance at the peak ([5]; ozone/oxygen bubbled 30 min through distilled h20, 260 nm): 0.590 ABS

Compound: FC1(F)C(F)(F)C(F)(F)C2(F)C(F)(F)C(F)(F)C(F)(F)C(F)(F)C2(F)C1(F)F (centres unmarked) [perfluorodecalin]
- volume of oxygen dissolved by 100 ml ([1]; 100 ml perfluorodecalin at 25° C., oxygen at STP): 49 mL

Compound: O=c1c(O)c(-c2ccc(O)c(O)c2)oc2cc(O)cc(O)c12 [quercetin]
- inhibitory effect on TrxR (TrxR): NADPH-, concentration-, and time-dependent inhibitory effect

Compound: O=C1c2c(O)cc(O)cc2O[C@H](c2ccc(O)c(O)c2)[C@H]1O [taxifolin]
- inhibitory effect on TrxR (TrxR): NADPH-, concentration-, and time-dependent inhibitory effect

Compound: catechin
- inhibitory effect on TrxR (TrxR): NADPH-, concentration-, and time-dependent inhibitory effect
